Legend:
Type in all cases: binding
[1] = biological target: His-BIR2-3 (125-356, C202A/C213G, XIAP) (Homo sapiens (Human), UniProt P98170, C202A/C213G); assay: XIAP-BIR2-3 Dimeric SMAC Peptide Homogeneous Time Resolved Fluorescence (HTRF) Assay; settings: fluorescein labeled dimeric SMAC peptide
Procedure: D. XIAP-BIR2-3 Dimeric SMAC Peptide Homogeneous Time Resolved Fluorescence (HTRF) Assay
(§1) Assays were performed in black, flat-bottom, 384-well plates.

His-BIR3 (241-356, XIAP) = His-BIR3 (241-356, XIAP) (Homo sapiens (Human), UniProt P98170); assay: XIAP-BIR3/SMAC Homogeneous Time Resolved Fluorescence (HTRF) Assay; settings: fluorescein labeled SMAC peptide
Procedure: B. XIAP-BIR3/SMAC Homogeneous Time Resolved Fluorescence (HTRF) Assay
as §1

[2] = biological target: N-His-Tb-BIR3 (241-356, XIAP) (Homo sapiens (Human), UniProt P98170); assay: biochemical; settings: fluoresceinated modified SMAC peptide, fluorescence polarization; read-out: XIAP BIR3 FPA IC50

For CN[C@@H](C)C(=O)N[C@H](C(=O)N1Cc2ccc(NC(=O)c3ccc(C(=O)N[C@H]4C[C@@H](C(=O)N[C@@H]5CCCc6ccccc65)N(C(=O)[C@@H](NC(=O)[C@H](C)NC)C(C)(C)C)C4)cc3)cc2C[C@H]1C(=O)N[C@@H]1CCCc2ccccc21)C(C)(C)C [Example 2, N^1—((S)-2-((S)-3,3-Dimethyl-2-((S)-2-(methylamino)propanamido)butanoyl)-3-(((R)-1,2,3,4-tetrahydronaphthalen-1-yl)carbamoyl)-1,2,3,4-tetrahydroisoquinolin-6-yl)-N^4-((3S,5S)-1-((S)-3,3-dimethyl-2-((S)-2-(methylamino)propanamido)butanoyl)-5-(((R)-1,2,3,4-tetrahydronaphthalen-1-yl)carbamoyl)pyrrolidin-3-yl)terephthalamide], which IC50 [1] is on record?
Its IC50 is 4 nM.

For CN[C@@H](C)C(=O)N[C@H](C(=O)N1Cc2cc(NC(=O)c3ccc(C(=O)N[C@H]4C[C@@H](C(=O)N[C@@H]5CCCc6ccccc65)N(C(=O)[C@@H](NC(=O)[C@H](C)NC)C(C)(C)C)C4)cc3)ccc2C[C@H]1C(=O)N[C@H](C)c1ccccc1F)C(C)(C)C [Example 11, N^1-((S)-2-((S)-3,3-Dimethyl-2-((S)-2-(methylamino)propanamido)butanoyl)-3-(((R)-1-(2-fluorophenyl)ethyl)carbamoyl)-1,2,3,4-tetrahydroisoquinolin-7-yl)-N^4-((3S,5S)-1-((S)-3,3-dimethyl-2-((S)-2-(methylamino)propanamido)butanoyl)-5-(((R)-1,2,3,4-tetrahydronaphthalen-1-yl)carbamoyl)pyrrolidin-3-yl)terephthalamide], which IC50 (His-BIR3 (241-356, XIAP)) is on record?
Its IC50 is 18 nM.

What about the IC50 [1] of the same molecule?
The IC50 was 12 nM.

How did the IC50 (His-BIR3 (241-356, XIAP)) turn out when CN[C@@H](C)C(=O)N[C@H](C(=O)N1Cc2cc(NC(=O)c3ccc(C(=O)N[C@H]4C[C@@H](C(=O)N[C@@H]5CCCc6ccccc65)N(C(=O)[C@@H](NC(=O)[C@H](C)NC)C(C)(C)C)C4)cc3)ccc2C[C@H]1C(=O)N[C@@H](COC)c1ccccc1)C(C)(C)C [Example 13, N^1-((S)-2-((S)-3,3-Dimethyl-2-((S)-2-(methylamino)propanamido)butanoyl)-3-(((R)-2-methoxy-1-phenylethyl)carbamoyl)-1,2,3,4-tetrahydroisoquinolin-7-yl)-N^4-((3S,5S)-1-((S)-3,3-dimethyl-2-((S)-2-(methylamino)propanamido)butanoyl)-5-(((R)-1,2,3,4-tetrahydronaphthalen-1-yl)carbamoyl)pyrrolidin-3-yl)terephthalamide] was run?
The IC50 was 12 nM.

And the IC50 [1]?
Its IC50 is 11 nM.

For CN[C@@H](C)C(=O)N[C@H](C(=O)N1Cc2cc(C(=O)Nc3ncc(C(=O)N[C@H]4C[C@@H](C(=O)N[C@@H]5CCCc6ccccc65)N(C(=O)[C@@H](NC(=O)[C@H](C)NC)C(C)(C)C)C4)s3)ccc2C[C@H]1C(=O)N[C@@H]1CCCc2ccccc21)C(C)(C)C [Example 21, (S)-2-((S)-3,3-Dimethyl-2-((S)-2-(methylamino)propanamido)butanoyl)-N^7-(5-(((3S,5S)-1-((S)-3,3-dimethyl-2-((S)-2-(methylamino)propanamido)butanoyl)-5-(((R)-1,2,3,4-tetrahydronaphthalen-1-yl)carbamoyl)pyrrolidin-3-yl)carbamoyl)thiazol-2-yl)-N^3-((R)-1,2,3,4-tetrahydronaphthalen-1-yl)-1,2,3,4-tetrahydroisoquinoline-3,7-dicarboxamide], which IC50 (His-BIR3 (241-356, XIAP)) is on record?
Its IC50 is 17 nM.

What about the IC50 [1] of the same molecule?
Its IC50 is 6 nM.

What does the source list for CN[C@@H](C)C(=O)N[C@H](C(=O)N1Cc2cc(C(=O)Nc3nc(C(=O)N[C@H]4C[C@@H](C(=O)N[C@@H]5CCCc6ccccc65)N(C(=O)[C@@H](NC(=O)[C@H](C)NC)C(C)(C)C)C4)co3)ccc2C[C@H]1C(=O)N[C@@H]1CCCc2ccccc21)C(C)(C)C [Example 22, (S)-2-((S)-3,3-Dimethyl-2-((S)-2-(methylamino)propanamido)butanoyl)-N^7-(4-(((3S,5S)-1-((S)-3,3-dimethyl-2-((S)-2-(methylamino)propanamido)butanoyl)-5-(((R)-1,2,3,4-tetrahydronaphthalen-1-yl)carbamoyl)pyrrolidin-3-yl)carbamoyl)oxazol-2-yl)-N^3-((R)-1,2,3,4-tetrahydronaphthalen-1-yl)-1,2,3,4-tetrahydroisoquinoline-3,7-dicarboxamide]?
IC50 (His-BIR3 (241-356, XIAP)): 14 nM; IC50 [1]: 4 nM

CN[C@@H](C)C(=O)N[C@H](C(=O)N1Cc2cc(OC(=O)c3ccc(C(=O)N[C@H]4C[C@@H](C(=O)N[C@@H]5CCCc6ccccc65)N(C(=O)[C@@H](NC(=O)[C@H](C)NC)C(C)(C)C)C4)cc3)ccc2C[C@H]1C(=O)N[C@@H]1CCCc2ccccc21)C(C)(C)C [Example 46, (S)-2-((S)-3,3-Dimethyl-2-((S)-2-(methylamino)propanamido)butanoyl)-3-(((R)-1,2,3,4-tetrahydronaphthalen-1-yl)carbamoyl)-1,2,3,4-tetrahydroisoquinolin-7-yl 4-(((3S,5S)-1-((S)-3,3-dimethyl-2-((S)-2-(methylamino)propanamido)butanoyl)-5-(((R)-1,2,3,4-tetrahydronaphthalen-1-yl)carbamoyl)pyrrolidin-3-yl)carbamoyl)benzoate] was tested. Which IC50 [2] did it give?
The IC50 was 69 nM.

How did the IC50 [2] turn out when CN[C@@H](C)C(=O)N[C@H](C(=O)N1Cc2cc(NC(=O)c3ccc(CO[C@H]4C[C@@H](C(=O)N[C@@H]5CCCc6ccccc65)N(C(=O)[C@@H](NC(=O)[C@H](C)NC)C(C)(C)C)C4)cc3)ccc2C[C@H]1C(=O)N[C@@H]1CCCc2ccccc21)C(C)(C)C [Example 47, (S)-2-((S)-3,3-Dimethyl-2-((S)-2-(methylamino)propanamido)butanoyl)-7-(4-((((3S,5S)-1-((S)-3,3-dimethyl-2-((S)-2-(methylamino)propanamido)butanoyl)-5-(((R)-1,2,3,4-tetrahydronaphthalen-1-yl)carbamoyl)pyrrolidin-3-yl)oxy)methyl)benzamido)-N—((R)-1,2,3,4-tetrahydronaphthalen-1-yl)-1,2,3,4-tetrahydroisoquinoline-3-carboxamide] was run?
Its IC50 is 67 nM.

CN[C@@H](C)C(=O)N[C@H](C(=O)N1Cc2cc(OC(=O)c3ccc(CO[C@H]4C[C@@H](C(=O)N[C@@H]5CCCc6ccccc65)N(C(=O)[C@@H](NC(=O)[C@H](C)NC)C(C)(C)C)C4)cc3)ccc2C[C@H]1C(=O)N[C@@H]1CCCc2ccccc21)C(C)(C)C [Example 48, (S)-2-((S)-3,3-Dimethyl-2-((S)-2-(methylamino)propanamido)butanoyl)-3-(((R)-1,2,3,4-tetrahydronaphthalen-1-yl)carbamoyl)-1,2,3,4-tetrahydroisoquinolin-7-yl 4-((((3S,5S)-1-((S)-3,3-dimethyl-2-((S)-2-(methylamino)propanamido)butanoyl)-5-(((R)-1,2,3,4-tetrahydronaphthalen-1-yl)carbamoyl)pyrrolidin-3-yl)oxy)methyl)benzoate] was tested. Which IC50 [2] did it give?
Its IC50 is 92 nM.

For CN[C@@H](C)C(=O)N[C@H](C(=O)N1Cc2cc(NC(=O)c3ccc(CO[C@H]4C[C@@H](C(=O)N[C@@H]5CCCc6ccccc65)N(C(=O)[C@@H](NC(=O)[C@H](C)NC)C(C)(C)C)C4)cc3)ccc2C[C@H]1C(=O)N[C@H](C)c1ccccc1F)C(C)(C)C [Example 50, (S)-2-((S)-3,3-Dimethyl-2-((S)-2-(methylamino)propanamido)butanoyl)-7-(4-((((3S,5S)-1-((S)-3,3-dimethyl-2-((S)-2-(methylamino)propanamido)butanoyl)-5-(((R)-1,2,3,4-tetrahydronaphthalen-1-yl)carbamoyl)pyrrolidin-3-yl)oxy)methyl)benzamido)-N-((R)-1-(2-fluorophenyl)ethyl)-1,2,3,4-tetrahydroisoquinoline-3-carboxamide], which IC50 [2] is on record?
Its IC50 is 53 nM.

How did the IC50 [2] turn out when CN[C@@H](C)C(=O)N[C@H](C(=O)N1Cc2cc(NC(=O)c3cccc(CO[C@H]4C[C@@H](C(=O)N[C@@H]5CCCc6ccccc65)N(C(=O)[C@@H](NC(=O)[C@H](C)NC)C(C)(C)C)C4)c3)ccc2C[C@H]1C(=O)N[C@@H]1CCCc2ccccc21)C(C)(C)C [Example 52, (S)-2-((S)-3,3-Dimethyl-2-((S)-2-(methylamino)propanamido)butanoyl)-7-(3-((((3S,5S)-1-((S)-3,3-dimethyl-2-((S)-2-(methylamino)propanamido)butanoyl)-5-(((R)-1,2,3,4-tetrahydronaphthalen-1-yl)carbamoyl)pyrrolidin-3-yl)oxy)methyl)benzamido)-N-((R)-1,2,3,4-tetrahydronaphthalen-1-yl)-1,2,3,4-tetrahydroisoquinoline-3-carboxamide] was run?
Its IC50 is 42 nM.

How did the IC50 [2] turn out when CN[C@@H](C)C(=O)N[C@H](C(=O)N1Cc2cc(NC(=O)c3ccc4ccn(C(=O)NC5C[C@@H](C(=O)NC6CCCc7ccccc76)N(C(=O)[C@@H](NC(=O)[C@H](C)NC)C(C)(C)C)C5)c4c3)ccc2C[C@H]1C(=O)NC1CCCc2ccccc21)C(C)(C)C (stereo partly drawn) [Example 53, N^6-((3S)-2-((S)-3,3-Dimethyl-2-((S)-2-(methylamino)propanamido)butanoyl)-3-((1,2,3,4-tetrahydronaphthalen-1-yl)carbamoyl)-1,2,3,4-tetrahydroisoquinolin-7-yl)-N^1-((5S)-1-((S)-3,3-dimethyl-2-((S)-2-(methylamino)propanamido)butanoyl)-5-((1,2,3,4-tetrahydronaphthalen-1-yl)carbamoyl)pyrrolidin-3-yl)-1H-indole-1,6-dicarboxamide] was run?
Its IC50 is 140 nM.

From patent US9783573B2, “IAP antagonists” (BRISTOL-MYERS SQUIBB COMPANY, priority 2012, dated 2017)
